# Reference: patent US8748430B2, “Pyrrolidin-3yl-methylamine quinoxaline derivatives” (Hoffmann-La Roche Inc, priority 2008, dated 2014)
# Target: T1, human orexin-2 (hOX2) receptor (Homo sapiens, UniProt O43614)
# T1 construct: expressed in transfected cells
# T1 sequence (O43614 1-444): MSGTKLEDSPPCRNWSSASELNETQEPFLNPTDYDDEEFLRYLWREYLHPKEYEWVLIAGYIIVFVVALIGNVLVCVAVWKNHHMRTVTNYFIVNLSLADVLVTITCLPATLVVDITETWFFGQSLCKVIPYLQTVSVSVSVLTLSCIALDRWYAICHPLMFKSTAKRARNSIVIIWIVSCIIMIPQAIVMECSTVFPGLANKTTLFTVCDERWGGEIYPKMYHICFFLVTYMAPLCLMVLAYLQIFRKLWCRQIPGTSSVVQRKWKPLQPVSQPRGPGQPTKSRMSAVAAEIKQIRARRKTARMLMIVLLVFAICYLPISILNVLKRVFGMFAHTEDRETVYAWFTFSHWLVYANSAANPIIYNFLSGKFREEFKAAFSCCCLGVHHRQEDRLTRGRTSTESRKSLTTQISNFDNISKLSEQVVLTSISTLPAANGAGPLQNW
# Assay: Intracellular Ca2+ mobilization assay (FLIPR), antagonism of orexin-A at EC80
# Assay type: cell-based
# Conditions: CHO(dHFr-) cells stably expressing hOX2; orexin-A at EC80 as agonist; antagonist applied 25 min before; Kb=IC50/(1+[A]/EC50); read-out: Kb (μM) OX2R (human)
# Protocol: Intracellular Ca^2+ Mobilization Assay
# The Chinese Hamster Ovary (dHFr-) mutant cell line stably expressing human orexin-1 (hOX1) or human orexin-2 (hOX2) receptors were maintained in Dulbecco's Modified Eagle Medium (1×) with GlutaMax™1, 4500 mg/L D-Glucose and Sodium Pyruvate (Catalog No. 31966-021, Invitrogen, Carlsbad, Calif.), 5% dialyzed fetal calf serum (Catalog No. 26400-044), 100 μg/ml penicillin and 100 μg/ml streptomycin. The cells were seeded at 5×10^4 cells/well in the poly-D-lysine treated, 96-well, black/clear-bottomed plates (Catalog No. BD356640, BD Biosciences, Palo Alto, Calif.). 24 h later, the cells were loaded for 1 h at 37° C. with 4 μM Flou-4 acetoxymethyl ester (Catalog No. F-14202, Molecular Probes, Eugene, Oreg.) in FLIPR buffer (1×HBSS, 20 mM HEPES, 2.5 mM Probenecid). Hanks' Balanced Salt Solution (HBSS) (10×) (catalog No. 14065-049) and HEPES (1M) (catalog No. 15630-056) were purchased from Invitrogen, Carlsbad, Calif. Probenecid (250 mM) (catalog No. P8761) was from Sigma, Buchs, Switzerland. The cells were washed five times with FLIPR buffer to remove excess dye and intracellular calcium mobilization, [Ca^2+]i were measured using a Fluorometric Imaging Plate Reader (FLIPR-96, Molecular Devices, Menlo Park, Calif.) as described previously (Malherbe et al., Mol. Pharmacol., 64, 823-832, 2003). Orexin A (catalog No. 1455, Toris Cookson Ltd, Bristol, UK) was used as agonist. Orexin A ([…] stock solution in DMSO) was diluted in FLIPR buffer+0.1% BSA. The EC50 and EC80 values of orexin-A were measured daily from standard agonist concentration-response curves in CHO(dHFr-)-OX1R and -OX2R cell lines. All compounds were dissolved in 100% DMSO. Inhibition curves were determined by addition of 11 concentrations (0.0001-10 μM) of inhibitory compounds and using EC80 value of orexin-A as agonist (a concentration which gave 80% of max agonist response, determined daily). The antagonists were applied 25 min (incubation at 37° C.) before the application of the agonist. Responses were measured as peak increase in fluorescence minus basal, normalized to the maximal stimulatory effect induced by EC80 value of orexin-A or orexin-B. Inhibition curves were fitted according to the Hill equation: y=100/(1+(x/IC50)^nH), where nH=slope factor using Excel-fit 4 software (Microsoft). Kb values were calculated according to the following equation Kb=IC50/(1+[A]/EC50) where A is the concentration of agonist added which is very close to agonist EC80 value, and IC50 and EC50 values were derived from the antagonist inhibition and orexin-A or B agonist curves, respectively.
row,Compound,Kb
1,"O=C(c1ccccc1OC(F)(F)C(F)F)N1CC[C@@H](CNc2cnc3cc(Cl)ccc3n2)C1 [Example 27, {(S)-3-[(6-Chloro-quinoxalin-2-ylamino)-methyl]-pyrrolidin-1-yl}-[2-(1,1,2,2-tetrafluoro-ethoxy)-phenyl]-methanone]",0.0839 µM
2,"Cc1onc(-c2ccccc2)c1C(=O)N1CC[C@@H](CNc2cnc3cc(Cl)ccc3n2)C1 [Example 29, {(S)-3-[(6-Chloro-quinoxalin-2-ylamino)-methyl]-pyrrolidin-1-yl}-(5-methyl-3-phenyl-isoxazol-4-yl)-methanone]",0.407 µM
3,"COc1ccc(C)cc1C(=O)N1CC[C@@H](CNc2cnc3cc(Cl)ccc3n2)C1 [Example 32, {(S)-3-[(6-Chloro-quinoxalin-2-ylamino)-methyl]-pyrrolidin-1-yl}-(2-methoxy-5-methyl-phenyl)-methanone]",0.185 µM

# More lines, now with the values ahead:
row,Kb,Compound
1,0.331 µM,"Cc1ccc(C(F)(F)F)c(C(=O)N2CC[C@@H](CNc3cnc4cc(Cl)ccc4n3)C2)c1 [Example 28, {(S)-3-[(6-Chloro-quinoxalin-2-ylamino)-methyl]-pyrrolidin-1-yl}-(5-methyl-2-trifluoromethyl-phenyl)-methanone]"
2,0.34 µM,"O=C(c1cnoc1-c1ccccc1)N1CC[C@@H](CNc2cnc3cc(Cl)ccc3n2)C1 [Example 30, {(S)-3-[(6-Chloro-quinoxalin-2-ylamino)-methyl]-pyrrolidin-1-yl}-(5-phenyl-isoxazol-4-yl)-methanone]"
3,0.539 µM,"Cc1ccc(Cl)c(C(=O)N2CC[C@@H](CNc3cnc4cc(Cl)ccc4n3)C2)c1 [Example 31, (2-Chloro-5-methyl-phenyl)-{(S)-3-[(6-chloro-quinoxalin-2-ylamino)-methyl]-pyrrolidin-1-yl}-methanone]"
